In PubChem BioAssay (NCI):
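Briefly, cells in 96-well plates were exposed to five compound concentrations for 48 h, and endpoints were estimated by linear interpolation. The concentration for full growth arrest is given as TGI.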

Columns and labels:
Experiment in all cases: NCI anticancer screen, dose series, 48 h
HOP-92 NSCLC = system: HOP-92 NSCLC
UACC-257 melanoma = system: UACC-257 melanoma
MOLT-4 leukemia = system: MOLT-4 leukemia
K-562 leukemia = system: K-562 leukemia
SK-MEL-2 melanoma = system: SK-MEL-2 melanoma
A498 renal = system: A498 renal
CAKI-1 renal = system: CAKI-1 renal
TK-10 renal = system: TK-10 renal
EKVX NSCLC = system: EKVX NSCLC
ACHN renal = system: ACHN renal
KM20L2 colon = system: KM20L2 colon
RPMI-8226 leukemia = system: RPMI-8226 leukemia
RXF 393 renal = system: RXF 393 renal
NCI-H23 lung = system: NCI-H23 lung
SF-268 CNS = system: SF-268 CNS
LXFL 529 NSCLC = system: LXFL 529 NSCLC
DLD-1 colon = system: DLD-1 colon
CCRF-CEM leukemia = system: CCRF-CEM leukemia
UACC-62 melanoma = system: UACC-62 melanoma
NCI-H460 lung = system: NCI-H460 lung
DMS 273 small cell lung = system: DMS 273 small cell lung
HCT-15 colon = system: HCT-15 colon
SK-MEL-28 melanoma = system: SK-MEL-28 melanoma
U251 CNS = system: U251 CNS
OVCAR-3 ovarian = system: OVCAR-3 ovarian
SK-OV-3 ovarian = system: SK-OV-3 ovarian
LOX IMVI melanoma = system: LOX IMVI melanoma
HL-60(TB) leukemia = system: HL-60(TB) leukemia
OVCAR-4 ovarian = system: OVCAR-4 ovarian
SK-MEL-5 melanoma = system: SK-MEL-5 melanoma
OVCAR-8 ovarian = system: OVCAR-8 ovarian
XF 498 CNS = system: XF 498 CNS
SN12C renal = system: SN12C renal
HCT-116 colon = system: HCT-116 colon
SR leukemia = system: SR leukemia
SNB-19 CNS = system: SNB-19 CNS
SNB-75 CNS = system: SNB-75 CNS
UO-31 renal = system: UO-31 renal
SNB-78 CNS = system: SNB-78 CNS
SF-539 CNS = system: SF-539 CNS
HOP-62 NSCLC = system: HOP-62 NSCLC
786-0 renal = system: 786-0 renal
M19-MEL melanoma = system: M19-MEL melanoma
SF-295 CNS = system: SF-295 CNS
IGROV1 ovarian = system: IGROV1 ovarian
A549 NSCLC = system: A549 NSCLC
M14 melanoma = system: M14 melanoma
COLO 205 colon = system: COLO 205 colon
KM12 colon = system: KM12 colon
SW-620 colon = system: SW-620 colon
DMS 114 small cell lung = system: DMS 114 small cell lung
HCC-2998 colon = system: HCC-2998 colon
OVCAR-5 ovarian = system: OVCAR-5 ovarian
NCI-H522 lung = system: NCI-H522 lung
MALME-3M melanoma = system: MALME-3M melanoma
NCI-H226 lung = system: NCI-H226 lung
HOP-18 NSCLC = system: HOP-18 NSCLC

Question: What does the source list for CC1(C)CCC(Sc2ccccc2)O1 (stereo not drawn)?
Answer: TGI (HOP-92 NSCLC): > 100 µM; TGI (UACC-257 melanoma): > 100 µM; TGI (MOLT-4 leukemia): > 100 µM; TGI (K-562 leukemia): > 100 µM; TGI (SK-MEL-2 melanoma): > 100 µM; TGI (A498 renal): > 100 µM; TGI (CAKI-1 renal): > 100 µM; TGI (TK-10 renal): > 100 µM; TGI (EKVX NSCLC): > 100 µM; TGI (ACHN renal): > 100 µM; TGI (KM20L2 colon): > 100 µM; TGI (RPMI-8226 leukemia): > 100 µM; TGI (RXF 393 renal): > 100 µM; TGI (NCI-H23 lung): > 100 µM; TGI (SF-268 CNS): > 100 µM; TGI (LXFL 529 NSCLC): > 100 µM; TGI (DLD-1 colon): > 100 µM; TGI (CCRF-CEM leukemia): > 100 µM; TGI (UACC-62 melanoma): > 100 µM; TGI (NCI-H460 lung): > 100 µM; TGI (DMS 273 small cell lung): > 100 µM; TGI (HCT-15 colon): > 100 µM; TGI (SK-MEL-28 melanoma): > 100 µM; TGI (U251 CNS): > 100 µM; TGI (OVCAR-3 ovarian): > 100 µM; TGI (SK-OV-3 ovarian): > 100 µM; TGI (LOX IMVI melanoma): > 100 µM; TGI (HL-60(TB) leukemia): > 100 µM; TGI (OVCAR-4 ovarian): > 100 µM; TGI (SK-MEL-5 melanoma): > 100 µM; TGI (OVCAR-8 ovarian): > 100 µM; TGI (XF 498 CNS): > 100 µM; TGI (SN12C renal): > 100 µM; TGI (HCT-116 colon): > 100 µM; TGI (SR leukemia): > 100 µM; TGI (SNB-19 CNS): > 100 µM; TGI (SNB-75 CNS): > 100 µM; TGI (UO-31 renal): > 100 µM; TGI (SNB-78 CNS): > 100 µM; TGI (SF-539 CNS): > 100 µM; TGI (HOP-62 NSCLC): > 100 µM; TGI (786-0 renal): > 100 µM; TGI (M19-MEL melanoma): > 100 µM; TGI (SF-295 CNS): > 100 µM; TGI (IGROV1 ovarian): > 100 µM; TGI (A549 NSCLC): > 100 µM; TGI (M14 melanoma): > 100 µM; TGI (COLO 205 colon): > 100 µM; TGI (KM12 colon): > 100 µM; TGI (SW-620 colon): > 100 µM; TGI (DMS 114 small cell lung): > 100 µM; TGI (HCC-2998 colon): > 100 µM

Question: How did the TGI (HOP-92 NSCLC) turn out when Nc1nc2c(N)cc(C(F)(F)F)cc2nc1-c1ccccc1 was run?
Answer: Its TGI is over 100 µM.

Question: And the TGI (UACC-257 melanoma)?
Answer: Its TGI is over 100 µM.

Question: And the TGI (MOLT-4 leukemia)?
Answer: Its TGI is over 100 µM.

Question: And the TGI (K-562 leukemia)?
Answer: Its TGI is over 100 µM.

Question: And the TGI (SK-MEL-2 melanoma)?
Answer: Its TGI is over 100 µM.

Question: And the TGI (A498 renal)?
Answer: The TGI was over 100 µM.

Question: And the TGI (CAKI-1 renal)?
Answer: Its TGI is over 100 µM.

Question: What about the TGI (TK-10 renal) of the same compound?
Answer: Its TGI is over 100 µM.

Question: What about the TGI (EKVX NSCLC) of the same compound?
Answer: The TGI was over 100 µM.

Question: And the TGI (ACHN renal)?
Answer: The TGI was over 100 µM.

Question: What about the TGI (KM20L2 colon) of the same compound?
Answer: The TGI was over 100 µM.

Question: And the TGI (RXF 393 renal)?
Answer: Its TGI is over 100 µM.

Question: And the TGI (NCI-H23 lung)?
Answer: The TGI was over 100 µM.

Question: What about the TGI (SF-268 CNS) of the same compound?
Answer: The TGI was over 100 µM.

Question: What about the TGI (LXFL 529 NSCLC) of the same compound?
Answer: Its TGI is over 100 µM.

Question: What about the TGI (DLD-1 colon) of the same compound?
Answer: Its TGI is over 100 µM.

Question: What about the TGI (OVCAR-5 ovarian) of the same compound?
Answer: Its TGI is over 100 µM.

Question: And the TGI (CCRF-CEM leukemia)?
Answer: Its TGI is over 100 µM.

Question: What about the TGI (UACC-62 melanoma) of the same compound?
Answer: The TGI was over 100 µM.

Question: What about the TGI (NCI-H460 lung) of the same compound?
Answer: The TGI was over 100 µM.

Question: And the TGI (DMS 273 small cell lung)?
Answer: Its TGI is over 100 µM.

Question: What about the TGI (HCT-15 colon) of the same compound?
Answer: The TGI was over 100 µM.

Question: And the TGI (SK-MEL-28 melanoma)?
Answer: The TGI was over 100 µM.

Question: What about the TGI (U251 CNS) of the same compound?
Answer: Its TGI is over 100 µM.

Question: And the TGI (OVCAR-3 ovarian)?
Answer: The TGI was over 100 µM.

Question: And the TGI (SK-OV-3 ovarian)?
Answer: The TGI was over 100 µM.

Question: What about the TGI (LOX IMVI melanoma) of the same compound?
Answer: The TGI was over 100 µM.

Question: And the TGI (HL-60(TB) leukemia)?
Answer: Its TGI is over 100 µM.

Question: And the TGI (OVCAR-4 ovarian)?
Answer: Its TGI is over 100 µM.

Question: And the TGI (SK-MEL-5 melanoma)?
Answer: Its TGI is over 100 µM.

Question: What about the TGI (NCI-H522 lung) of the same compound?
Answer: Its TGI is over 100 µM.

Question: And the TGI (OVCAR-8 ovarian)?
Answer: The TGI was over 100 µM.

Question: What about the TGI (XF 498 CNS) of the same compound?
Answer: Its TGI is over 100 µM.

Question: What about the TGI (SN12C renal) of the same compound?
Answer: The TGI was over 100 µM.

Question: And the TGI (HCT-116 colon)?
Answer: Its TGI is over 100 µM.

Question: And the TGI (SR leukemia)?
Answer: Its TGI is over 100 µM.

Question: What about the TGI (SNB-19 CNS) of the same compound?
Answer: Its TGI is over 100 µM.

Question: And the TGI (MALME-3M melanoma)?
Answer: The TGI was over 100 µM.

Question: What about the TGI (SNB-75 CNS) of the same compound?
Answer: Its TGI is 93.5 µM.

Question: And the TGI (UO-31 renal)?
Answer: Its TGI is over 100 µM.

Question: And the TGI (NCI-H226 lung)?
Answer: The TGI was over 100 µM.

Question: And the TGI (SNB-78 CNS)?
Answer: Its TGI is over 100 µM.

Question: What about the TGI (SF-539 CNS) of the same compound?
Answer: The TGI was over 100 µM.

Question: What about the TGI (HOP-62 NSCLC) of the same compound?
Answer: The TGI was over 100 µM.

Question: And the TGI (786-0 renal)?
Answer: The TGI was over 100 µM.

Question: And the TGI (M19-MEL melanoma)?
Answer: Its TGI is over 100 µM.

Question: And the TGI (SF-295 CNS)?
Answer: The TGI was over 100 µM.

Question: What about the TGI (IGROV1 ovarian) of the same compound?
Answer: Its TGI is over 100 µM.

Question: And the TGI (HOP-18 NSCLC)?
Answer: Its TGI is over 100 µM.

Question: What about the TGI (A549 NSCLC) of the same compound?
Answer: The TGI was over 100 µM.

Question: And the TGI (M14 melanoma)?
Answer: Its TGI is over 100 µM.

Question: What about the TGI (COLO 205 colon) of the same compound?
Answer: The TGI was over 100 µM.

Question: What about the TGI (KM12 colon) of the same compound?
Answer: The TGI was over 100 µM.

Question: And the TGI (SW-620 colon)?
Answer: Its TGI is over 100 µM.

Question: And the TGI (DMS 114 small cell lung)?
Answer: Its TGI is over 100 µM.

Question: And the TGI (HCC-2998 colon)?
Answer: The TGI was over 100 µM.
